The values below come from ChEMBL document CHEMBL4190212, “Synthesis, antiprotozoal activity, and chemoinformatic analysis of 2-(methylthio)-1H-benzimidazole-5-carboxamide derivatives: Identification of new selective giardicidal and trichomonicidal compounds” (Eur J Med Chem, 2017).

Experiment [1] relates to Entamoeba histolytica. Kind of experiment: Antiparasitic activity against trophozoite stage of Entamoeba histolytica HM-1:IMSS after 48 hrs by haemocytometric method. The class given is functional, organism-based.
For another experiment, the system named is Trichomonas vaginalis. The experiment is described as follows: Antiparasitic activity against trophozoite stage of Trichomonas vaginalis CNCD 147 after 48 hrs. The following applies: CNCD 147, 48 h. The class given is functional, organism-based.
The subject of experiment [2] is Entamoeba histolytica. Kind of experiment: Antiparasitic activity against trophozoite stage of Entamoeba histolytica HM-1:IMSS after 48 hrs. Type of experiment: functional, organism-based.
Experiment [3] has as its system Giardia intestinalis. The experiment is described as follows: Antiparasitic activity against trophozoite stage of Giardia intestinalis IMSS:0989:1 after 48 hrs. As to conditions: Giardia duodenalis, IMSS:0989:1, 48 h. The class given is functional, organism-based.
The subject of experiment [4] is Giardia intestinalis. Kind of experiment: Potency index, ratio of metronidazole IC50 to test compound IC50 for trophozoite stage of Giardia intestinalis IMSS:0989:1. Type of experiment: functional, Giardia duodenalis.
For experiment [5], the system named is Entamoeba histolytica. The experiment is described as follows: Potency index, ratio of metronidazole IC50 to test compound IC50 for trophozoite stage of Entamoeba histolytica HM-1:IMSS. The class given is functional.

In the case of `O=[N+]([O-])c1cc2nc(C(F)(F)F)[nH]c2cc1[N+](=O)[O-]`, the IC50 in the experiment with Entamoeba histolytica [1] was 1.55 µM.
Take `FC(F)(F)C(F)(F)c1nc2c(Br)c(Br)c(Br)c(Br)c2[nH]1`: half-maximal inhibition with Entamoeba histolytica [1] (IC50) required 0.229 µM.
The same measure, in the same setting: in the case of `FC(F)(F)c1nc2c(Br)c(Br)c(Br)cc2[nH]1` it was 13.8 µM.
On the same count and under the same terms, in the case of `FC(F)(F)c1nc2cc(Br)c(Br)cc2[nH]1` it was 0.437 µM.
Turning to `CSc1nc2cc(C(=O)Nc3cccc(C)n3)c(Cl)cc2n1C`, the 50% inhibitory concentration (IC50) in the experiment on Trichomonas vaginalis was determined as 0.0288 µM; with Entamoeba histolytica [2] it was 0.0418 µM; in the experiment on Giardia intestinalis [3], 0.0158 µM.
For `CSc1nc2cc(C(=O)Nc3cccc(C)n3)c(Cl)cc2[nH]1`, in that order: 0.111 µM, 0.0813 µM and 0.135 µM.
For `CSc1nc2cc(C(=O)Nc3ccccn3)c(Cl)cc2[nH]1`, in that order: 0.0676 µM, 0.044 µM and 0.077 µM.
Consider `CSc1nc2cc(C(=O)Nc3ccc([N+](=O)[O-])cn3)c(Cl)cc2n1C`, for which the IC50 in the experiment on Trichomonas vaginalis came out at 0.041 µM; in the experiment with Entamoeba histolytica [2], 0.0092 µM; in the experiment on Giardia intestinalis [3], 0.0079 µM. The entries for the “Ratio IC50” value with Giardia intestinalis [4] and in the experiment with Entamoeba histolytica [5] were 155 and 41, respectively.
Turning to `CSc1nc2cc(C(=O)Nc3ccccc3)c(Cl)cc2[nH]1`, the half-inhibitory concentration (IC50) amounted to 0.12 µM with Trichomonas vaginalis, 0.052 µM with Entamoeba histolytica [2] and 0.0725 µM in the experiment on Giardia intestinalis [3].
For `CSc1nc2cc(C(=O)Nc3ccccn3)c(Cl)cc2n1C`, in that order: 0.012 µM, 0.0345 µM and 0.346 µM.
For `CSc1nc2cc(C(=O)NNC(=O)OC(C)(C)C)c(Cl)cc2n1C`, in that order: 0.0283 µM, 0.0485 µM and 0.0566 µM.
For `CSc1nc2cc(C(=O)Nc3cccc(Cl)c3)c(Cl)cc2[nH]1`, in that order: 0.162 µM, 0.051 µM and 1.11 µM.
Take `CSc1nc2cc(C(=O)Nc3cccc(C)c3)c(Cl)cc2[nH]1`: the IC50 in the experiment on Trichomonas vaginalis came out at 0.515 µM; in the experiment with Entamoeba histolytica [2], 0.12 µM; in the experiment on Giardia intestinalis [3], 0.25 µM.
For `CSc1nc2cc(C(=O)Nc3cccc(Cl)n3)c(Cl)cc2n1C`, in that order: 0.368 µM, 0.0408 µM and 0.0122 µM.
For `CSc1nc2cc(C(=O)Nc3cccc(Cl)n3)c(Cl)cc2[nH]1`, in that order: 0.128 µM, 0.0369 µM and 0.455 µM.
For `CSc1nc2cc(C(=O)N/N=C/c3ccc([N+](=O)[O-])o3)c(Cl)cc2n1C` the same measures were 0.0132 µM, 0.0266 µM and 0.0292 µM.
